Patent US20260250318A1, “COMPOSITIONS AND METHODS FOR CROSSING THE BLOOD BRAIN BARRIER” (VOYAGER THERAPEUTICS, INC., priority 2022, published 2026)

Tests used:
Details in all cases: synthetic library passage 3, intravenous, relative to wild-type AAV9
brain [1] = assay: NGS fold enrichment of synthetic library (passage 3) in BALB/c mice, first cross-species screen; type: in vivo
How it was run: (§1)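 Fold enrichment versus wild-type AAV9 was derived by NGS of RT-PCR-amplified RNA from nervous tissue, collected e.g. 28 days after IV dosing […]. The library (passage 3) was given to two NHPs aged 2-4 years and to 6-8-week BALB/c and C57Bl/6 mice (n=3 each).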

brain [2] = assay: NGS fold enrichment of synthetic library (passage 3) in C57Bl/6 mice, first cross-species screen; type: in vivo
How it was run: as §1

[3] = system: brain, spinal cord, and DRG of the NHPs; assay: NGS fold enrichment of synthetic library (passage 3) in NHPs, first cross-species screen; type: in vivo, cynomolgus macaques (Macaca fascicularis)
How it was run: as §1

[4] = RNA from brain of BALB/c mice, NGS
[5] = RNA from brain of C57Bl/6 mice, NGS
[6] = RNA from spinal cord of NHPs, NGS

Row | Sequence | Fold enrichment over AAV9 in the brain of Mice (BALB/c) (brain [1]; RNA NGS, brain of BALB/c mice) [fold] | Fold enrichment over AAV9 in the brain of Mice (C57Bl/6) (brain [2]; RNA NGS, brain of C57Bl/6 mice) [fold] | Fold enrichment over AAV9 in the brain of NHPs ([3]; RNA NGS, brain of NHPs) [fold] | Fold enrichment over AAV9 in the spinal cord of NHPs ([3]; RNA NGS, spinal cord of NHPs) [fold] | Fold enrichment over AAV9 in the brain of Mice (BALB/c) (brain [1]; [4]) [fold] | Fold enrichment over AAV9 in the brain of Mice (C57Bl/6) (brain [2]; [5]) [fold] | Fold enrichment over AAV9 in the brain of NHPs ([3]; RNA from brain of NHPs, NGS) [fold] | Fold enrichment over AAV9 in the spinal cord of NHPs [3, 6] [fold]
1 | GSGQYASSIPNQQT | 0.489 | 1.022 | 2.346 | 3.321 | – | – | – | –
2 | GSGQYRSSSDNQQT | – | – | – | – | 0.409 | 0.681 | 1.369 | 6.209
3 | GSGQYVHVSSNQQT | – | – | – | – | 0.366 | 0.739 | 1.137 | 1.803
4 | GSGRHLASVQNQQT | – | – | – | – | 0.606 | 0.654 | 1.187 | 1.024
5 | GSGRLVPNGPNQQT | 0.411 | 0.639 | 2.314 | 3.925 | – | – | – | –
6 | GSGRNPQTQPLQQT | 0.573 | 0.733 | 1.519 | 0.040 | – | – | – | –
7 | GSGSDMSSWQNQQT | 0.303 | 0.281 | 1.651 | 0.175 | – | – | – | –
8 | GSGSHHASRQNQQT | 0.584 | 3.073 | 1.712 | 0.451 | – | – | – | –
9 | GSGSHRDVSQNQQT | 0.550 | 0.626 | 2.843 | 4.022 | – | – | – | –
10 | GSGSKQNALQNQQT | – | – | – | – | 0.594 | 0.941 | 1.216 | 2.010
11 | GSGSLRDFDQNQQT | 0.272 | 0.586 | 2.120 | 6.846 | – | – | – | –
12 | GSGSNMRLSQNQQT | – | – | – | – | 0.730 | 0.962 | 1.363 | 0.588
13 | GSGSPHARMQNQQT | 4.164 | 7.795 | 56.138 | 22.690 | – | – | – | –
14 | GSGSPHPSRQNQQT | 0.975 | 1.869 | 3.017 | 1.993 | – | – | – | –
15 | GSGSPHVKIQNQQT | 2.227 | 2.173 | 16.854 | 9.068 | – | – | – | –
16 | GSGSPHVKSQNQQT | 15.861 | 8.069 | 37.551 | 13.649 | – | – | – | –
17 | GSGSPHVRMQNQQT | 10.076 | 9.121 | 11.574 | 6.764 | – | – | – | –
18 | GSGSPQASRQNQQT | – | – | – | – | 0.542 | 0.923 | 1.189 | 6.782
19 | GSGSPRDSIQNQQT | 0.446 | 0.171 | 1.981 | 4.914 | – | – | – | –
20 | GSGSPRQLSQNQQT | 0.273 | 0.520 | 1.621 | 0.873 | – | – | – | –

Row | Sequence | Fold enrichment over AAV9 in the brain of Mice (BALB/c) (brain [1]; RNA NGS, brain of BALB/c mice) [fold] | Fold enrichment over AAV9 in the brain of Mice (C57Bl/6) (brain [2]; RNA NGS, brain of C57Bl/6 mice) [fold] | Fold enrichment over AAV9 in the brain of NHPs ([3]; RNA NGS, brain of NHPs) [fold] | Fold enrichment over AAV9 in the spinal cord of NHPs ([3]; RNA NGS, spinal cord of NHPs) [fold] | Fold enrichment over AAV9 in the brain of Mice (BALB/c) (brain [1]; [4]) [fold] | Fold enrichment over AAV9 in the brain of Mice (C57Bl/6) (brain [2]; [5]) [fold] | Fold enrichment over AAV9 in the brain of NHPs ([3]; RNA from brain of NHPs, NGS) [fold] | Fold enrichment over AAV9 in the spinal cord of NHPs [3, 6] [fold]
21 | GSGSQHSKAQNQQT | – | – | – | – | 0.916 | 0.638 | 1.168 | 0.312
22 | GSGSQLMSLQNQQT | 0.172 | 0.563 | 2.065 | 3.559 | – | – | – | –
23 | GSGSSSMSFQNQQT | – | – | – | – | 0.095 | 0.466 | 1.279 | 0.540
24 | GSGSSSRPYQNQQT | 0.496 | 0.962 | 1.934 | 3.823 | – | – | – | –
25 | GSGSTHSKAQNQQT | – | – | – | – | 0.801 | 0.921 | 1.410 | 0.515
26 | GSGSVGFIGQNQQT | – | – | – | – | 0.445 | 0.689 | 1.227 | 8.261
27 | GSGSVSQLGQNQQT | 0.375 | 0.596 | 3.184 | 2.307 | – | – | – | –
28 | GSGTHLVSLQNQQT | – | – | – | – | 1.167 | 0.715 | 1.392 | 0.000
29 | GSGTHNSAIQNQQT | 0.574 | 0.762 | 1.469 | 0.570 | – | – | – | –
30 | GSGTHYDNRQNQQT | 0.486 | 0.612 | 1.054 | 0.072 | – | – | – | –
31 | GSGTLYPQSQNQQT | 0.160 | 0.324 | 2.761 | 5.558 | – | – | – | –
32 | GSGTQIPSQQNQQT | 0.151 | 0.470 | 3.112 | 1.224 | – | – | – | –
33 | GSGTSGKTGKNQQT | – | – | – | – | 0.676 | 0.358 | 1.333 | 4.033
34 | GSGTVHAATQNQQT | 0.476 | 0.563 | 1.721 | 1.676 | – | – | – | –
35 | GSGVHGVSSQNQQT | 0.951 | 1.504 | 1.781 | 4.519 | – | – | – | –
36 | GSGVMTHVLQNQQT | 0.533 | 0.370 | 2.692 | 0.347 | – | – | – | –
37 | GSGVQHSLPQNQQT | 0.387 | 0.440 | 1.639 | 0.764 | – | – | – | –
38 | GSGVSARMVQNQQT | – | – | – | – | 0.697 | 0.870 | 1.299 | 0.624
39 | GSGVSTQLLQNQQT | – | – | – | – | 0.509 | 0.928 | 1.367 | 2.467
40 | GSGVSTYNIQNQQT | 0.520 | 0.769 | 3.609 | 2.912 | – | – | – | –
